{
  "source": "patent US7473688B2",
  "about": "“Indolobenzazepine HCV NS5B inhibitors” (Bristol-Myers Squibb Company, priority 2005, dated 2009)",
  "key": {"[1]": {"target": "T1, HCV NS5B (Hepatitis C virus genotype 1b, UniProt Q9WMX2)", "T1 construct": "The protein was expressed with an 18 amino acid C-terminal truncation to enhance the solubility; made in house; host or cells: E. coli BL21 (DE3), pET21a", "T1 sequence (Q9WMX2 2420-2992)": "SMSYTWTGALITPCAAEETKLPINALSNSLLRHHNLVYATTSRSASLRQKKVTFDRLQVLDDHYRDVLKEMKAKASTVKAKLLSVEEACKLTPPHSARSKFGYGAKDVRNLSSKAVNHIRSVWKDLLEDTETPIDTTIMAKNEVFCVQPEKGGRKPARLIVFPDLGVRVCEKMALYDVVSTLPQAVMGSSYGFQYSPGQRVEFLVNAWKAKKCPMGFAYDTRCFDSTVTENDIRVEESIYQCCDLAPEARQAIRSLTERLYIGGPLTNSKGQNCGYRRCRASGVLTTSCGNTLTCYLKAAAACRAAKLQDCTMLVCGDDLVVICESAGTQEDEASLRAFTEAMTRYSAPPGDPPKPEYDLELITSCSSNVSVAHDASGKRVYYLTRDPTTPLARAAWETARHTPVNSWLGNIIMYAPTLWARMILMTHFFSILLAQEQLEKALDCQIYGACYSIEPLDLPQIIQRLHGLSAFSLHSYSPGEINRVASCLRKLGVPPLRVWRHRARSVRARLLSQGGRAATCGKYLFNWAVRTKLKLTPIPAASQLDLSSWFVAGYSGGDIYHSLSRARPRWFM", "experiment": "HCV NS5B RdRp enzyme assay (preincubation protocol)", "type": "biochemical", "conditions": "read-out: IC50*", "in_short": "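Preincubation format: enzyme (14 nM, genotype 1b, 18-residue C-terminal truncation) meets diluted compound first; reaction started with bead-bound biotinylated dT12 primer, polyA template 0.2 nM and 0.29 μM 3H-UTP. Run 4 h, 30 °C in Hepes pH 7.5; scintillation proximity signal; IC50 fitted from seven inhibitor levels.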"}, "[2]": {"system": "HCV replicon", "experiment": "HCV replicon FRET assay", "type": "cell-based", "conditions": "Hepatitis C virus, FRET assay, read-out: EC50*", "in_short": "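HCV replicon cells, with or without Renilla luciferase reporter, incubated with titrated compounds at 37 °C; Alamar blue read for cytotoxicity. NS3 protease activity read from lysates with 20 μM EDANS/DABCYL FRET peptide (340/490 nm, kinetic), or by Dual-Glo luciferase. Background from highest protease-inhibitor wells; EC50 = 50% signal reduction.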"}},
  "note": "pEC50, pIC50: −log10 of the molar value. Like-named read-outs stand apart in the source and are kept apart here.",
  "data": [
    {"smiles": "COc1ccc2c(c1)CC(NC(=O)NCCN1CCOCC1)Cn1c-2c(C2CCCCC2)c2ccc(C(=O)NS(=O)(=O)N(C)C)cc21", "note": "(stereo not drawn)", "values": [
      {"measurement": "pIC50", "setting": "[1]; Table 1a", "result": "6.00 to 8.00"},
      {"measurement": "pEC50", "setting": "[2]; Table 1a", "result": "6.00 to 7.52"}
    ]},
    {"smiles": "COc1ccc2c(c1)CC(NC(=O)N1CCC(N3CCCC3)CC1)Cn1c-2c(C2CCCCC2)c2ccc(C(=O)NS(=O)(=O)N(C)C)cc21", "note": "(stereo not drawn)", "values": [
      {"measurement": "pIC50", "setting": "[1]; Table 1a", "result": "6.00 to 8.00"},
      {"measurement": "pEC50", "setting": "[2]; Table 1a", "result": "6.00 to 7.52"}
    ]},
    {"smiles": "COc1ccc2c(c1)CC(NC(=O)N1CCN(S(C)(=O)=O)CC1)Cn1c-2c(C2CCCCC2)c2ccc(C(=O)NS(=O)(=O)N(C)C)cc21", "note": "(stereo not drawn)", "values": [
      {"measurement": "pIC50", "setting": "[1]; Table 1a", "result": "6.00 to 8.00"},
      {"measurement": "pEC50", "setting": "[2]; Table 1a", "result": "6.00 to 7.52"}
    ]},
    {"smiles": "COc1ccc2c(c1)CC(NC(=O)N1CCN(C(C)=O)CC1)Cn1c-2c(C2CCCCC2)c2ccc(C(=O)NS(=O)(=O)N(C)C)cc21", "note": "(stereo not drawn)", "values": [
      {"measurement": "pIC50", "setting": "[1]; Table 1a", "result": "6.00 to 8.00"},
      {"measurement": "pEC50", "setting": "[2]; Table 1a", "result": "6.00 to 7.52"}
    ]},
    {"smiles": "COc1ccc2c(c1)CC(NC(=O)N(C)CC(=O)N(C)C)Cn1c-2c(C2CCCCC2)c2ccc(C(=O)NS(=O)(=O)N(C)C)cc21", "note": "(stereo not drawn)", "values": [
      {"measurement": "pIC50", "setting": "[1]; Table 1a", "result": "6.00 to 8.00"},
      {"measurement": "pEC50", "setting": "[2]; Table 1a", "result": "6.00 to 7.52"}
    ]},
    {"smiles": "COc1ccc2c(c1)C=C(C(=O)N(C)C1CCOCC1)Cn1c-2c(C2CCCCC2)c2ccc(C(=O)NS(=O)(=O)N(C)C)cc21", "values": [
      {"measurement": "pIC50", "setting": "[1]; Table 1a", "result": "6.00 to 8.00"},
      {"measurement": "pEC50", "setting": "[2]; Table 1a", "result": "< 6.92"}
    ]},
    {"smiles": "COc1ccc2c(c1)C=C(C(=O)NCc1nccs1)Cn1c-2c(C2CCCCC2)c2ccc(C(=O)NS(=O)(=O)N(C)C)cc21", "values": [
      {"measurement": "pIC50", "setting": "[1]; Table 1a", "result": "6.00 to 8.00"},
      {"measurement": "pEC50", "setting": "[2]; Table 1a", "result": "6.00 to 7.52"}
    ]},
    {"smiles": "COc1ccc2c(c1)C=C(C(=O)N(CC(=O)O)CC(=O)O)Cn1c-2c(C2CCCCC2)c2ccc(C(=O)NS(=O)(=O)N(C)C)cc21", "values": [
      {"measurement": "pIC50", "setting": "[1]; Table 1b", "result": "6.00 to 7.70"},
      {"measurement": "pEC50", "setting": "[2]; Table 1b", "result": "< 5.00"}
    ]},
    {"smiles": "COc1ccc2c(c1)C=C(C(=O)N(C)[C@H](C(=O)O)C(C)C)Cn1c-2c(C2CCCCC2)c2ccc(C(=O)NS(=O)(=O)N(C)C)cc21", "values": [
      {"measurement": "pIC50", "setting": "[1]; Table 1b", "result": "> 7.70"},
      {"measurement": "pEC50", "setting": "[2]; Table 1b", "result": "6.00 to 7.52"}
    ]},
    {"smiles": "CCN(C)C(=O)NC1Cc2cc(OC)ccc2-c2c(C3CCCCC3)c3ccc(C(=O)NS(=O)(=O)N(C)C)cc3n2C1", "note": "(stereo not drawn)", "values": [
      {"measurement": "pIC50", "setting": "[1]; Table 1b", "result": "6.00 to 7.70"},
      {"measurement": "pEC50", "setting": "[2]; Table 1b", "result": "6.00 to 7.52"}
    ]},
    {"smiles": "COc1ccc2c(c1)CC(NC(=O)N(C)CCN(C)C)Cn1c-2c(C2CCCCC2)c2ccc(C(=O)NS(=O)(=O)N(C)C)cc21", "note": "(stereo not drawn)", "values": [
      {"measurement": "pIC50", "setting": "[1]; Table 1b", "result": "6.00 to 7.70"},
      {"measurement": "pEC50", "setting": "[2]; Table 1b", "result": "6.00 to 7.52"}
    ]},
    {"smiles": "COc1ccc2c(c1)CC(NC(N)=O)Cn1c-2c(C2CCCCC2)c2ccc(C(=O)NS(=O)(=O)N(C)C)cc21", "note": "(stereo not drawn)", "values": [
      {"measurement": "pIC50", "setting": "[1]; Table 1b", "result": "6.00 to 7.70"},
      {"measurement": "pEC50", "setting": "[2]; Table 1b", "result": "6.00 to 7.52"}
    ]},
    {"smiles": "COCCNC(=O)CN(C)C(=O)NC1Cc2cc(OC)ccc2-c2c(C3CCCCC3)c3ccc(C(=O)NS(=O)(=O)N(C)C)cc3n2C1", "note": "(stereo not drawn)", "values": [
      {"measurement": "pIC50", "setting": "[1]; Table 1b", "result": "6.00 to 7.70"},
      {"measurement": "pEC50", "setting": "[2]; Table 1b", "result": "6.00 to 7.52"}
    ]},
    {"smiles": "COc1ccc2c(c1)CC(NC(=O)N(C)CC(=O)NC(C)C)Cn1c-2c(C2CCCCC2)c2ccc(C(=O)NS(=O)(=O)N(C)C)cc21", "note": "(stereo not drawn)", "values": [
      {"measurement": "pIC50", "setting": "[1]; Table 1b", "result": "6.00 to 7.70"},
      {"measurement": "pEC50", "setting": "[2]; Table 1b", "result": "6.00 to 7.52"}
    ]},
    {"smiles": "COc1ccc2c(c1)CC(NC(=O)N(C)CC1CCOCC1)Cn1c-2c(C2CCCCC2)c2ccc(C(=O)NS(=O)(=O)N(C)C)cc21", "note": "(stereo not drawn)", "values": [
      {"measurement": "pIC50", "setting": "[1]; Table 1b", "result": "6.00 to 7.70"},
      {"measurement": "pEC50", "setting": "[2]; Table 1b", "result": "6.00 to 7.52"}
    ]},
    {"smiles": "COc1ccc2c(c1)CC(NC(=O)N(C)CC1CCCCO1)Cn1c-2c(C2CCCCC2)c2ccc(C(=O)NS(=O)(=O)N(C)C)cc21", "note": "(stereo not drawn)", "values": [
      {"measurement": "pIC50", "setting": "[1]; Table 1b", "result": "6.00 to 7.70"},
      {"measurement": "pEC50", "setting": "[2]; Table 1b", "result": "6.00 to 7.52"}
    ]},
    {"smiles": "COc1ccc2c(c1)CC(NC(=O)N(C)CC(N)=O)Cn1c-2c(C2CCCCC2)c2ccc(C(=O)NS(=O)(=O)N(C)C)cc21", "note": "(stereo not drawn)", "values": [
      {"measurement": "pIC50", "setting": "[1]; Table 1b", "result": "6.00 to 7.70"},
      {"measurement": "pEC50", "setting": "[2]; Table 1b", "result": "6.00 to 7.52"}
    ]},
    {"smiles": "COc1ccc2c(c1)CC(NC(=O)N1CCC(C(N)=O)C1)Cn1c-2c(C2CCCCC2)c2ccc(C(=O)NS(=O)(=O)N(C)C)cc21", "note": "(stereo not drawn)", "values": [
      {"measurement": "pIC50", "setting": "[1]; Table 1b", "result": "6.00 to 7.70"},
      {"measurement": "pEC50", "setting": "[2]; Table 1b", "result": "6.00 to 7.52"}
    ]},
    {"smiles": "COc1ccc2c(c1)CC(NC(=O)N(C)CC(=O)NC1CC1)Cn1c-2c(C2CCCCC2)c2ccc(C(=O)NS(=O)(=O)N(C)C)cc21", "note": "(stereo not drawn)", "values": [
      {"measurement": "pIC50", "setting": "[1]; Table 1b", "result": "6.00 to 7.70"},
      {"measurement": "pEC50", "setting": "[2]; Table 1b", "result": "6.00 to 7.52"}
    ]},
    {"smiles": "COc1ccc2c(c1)CC(NC(=O)N1CC(OC)C1)Cn1c-2c(C2CCCCC2)c2ccc(C(=O)NS(=O)(=O)N(C)C)cc21", "note": "(stereo not drawn)", "values": [
      {"measurement": "pIC50", "setting": "[1]; Table 1b", "result": "6.00 to 7.70"},
      {"measurement": "pEC50", "setting": "[2]; Table 1b", "result": "6.00 to 7.52"}
    ]},
    {"smiles": "COc1ccc2c(c1)CC(NC(=O)N(C)CC(=O)N1CCN(C)CC1)Cn1c-2c(C2CCCCC2)c2ccc(C(=O)NS(=O)(=O)N(C)C)cc21", "note": "(stereo not drawn)", "values": [
      {"measurement": "pIC50", "setting": "[1]; Table 1b", "result": "6.00 to 7.70"},
      {"measurement": "pEC50", "setting": "[2]; Table 1b", "result": "6.00 to 7.52"}
    ]},
    {"smiles": "COc1ccc2c(c1)CC(NC(=O)N1CC(O)C1)Cn1c-2c(C2CCCCC2)c2ccc(C(=O)NS(=O)(=O)N(C)C)cc21", "note": "(stereo not drawn)", "values": [
      {"measurement": "pIC50", "setting": "[1]; Table 1b", "result": "6.00 to 7.70"},
      {"measurement": "pEC50", "setting": "[2]; Table 1b", "result": "6.00 to 7.52"}
    ]},
    {"smiles": "COc1ccc2c(c1)CC(NC(=O)N1C[C@@H](C)N(C)[C@@H](C)C1)Cn1c-2c(C2CCCCC2)c2ccc(C(=O)NS(=O)(=O)N(C)C)cc21", "note": "(stereo partly drawn)", "values": [
      {"measurement": "pIC50", "setting": "[1]; Table 1b", "result": "6.00 to 7.70"},
      {"measurement": "pEC50", "setting": "[2]; Table 1b", "result": "6.00 to 7.52"}
    ]},
    {"smiles": "COc1ccc2c(c1)C=C(C(=O)N1CCOC(CF)C1)Cn1c-2c(C2CCCCC2)c2ccc(C(=O)NS(=O)(=O)N(C)C)cc21", "note": "(stereo not drawn)", "values": [
      {"measurement": "pIC50", "setting": "[1]; Table 1b", "result": "6.00 to 7.70"},
      {"measurement": "pEC50", "setting": "[2]; Table 1b", "result": "6.00 to 7.52"}
    ]},
    {"smiles": "COc1cccc2c1C=C(C(=O)N1CCOC(CF)C1)Cn1c-2c(C2CCCCC2)c2ccc(C(=O)NS(=O)(=O)N(C)C)cc21", "note": "(stereo not drawn)", "values": [
      {"measurement": "pIC50", "setting": "[1]; Table 1b", "result": "6.00 to 7.70"},
      {"measurement": "pEC50", "setting": "[2]; Table 1b", "result": "6.00 to 7.52"}
    ]},
    {"smiles": "COc1ccc2c(c1)C=C(C(=O)N1CCN(c3cnccn3)CC1)Cn1c-2c(C2CCCCC2)c2ccc(C(=O)NS(=O)(=O)N(C)C)cc21", "values": [
      {"measurement": "pIC50", "setting": "[1]; Table 1b", "result": "6.00 to 7.70"},
      {"measurement": "pEC50", "setting": "[2]; Table 1b", "result": "6.00 to 7.52"}
    ]},
    {"smiles": "COc1ccc2c(c1)CC(C(=O)N1CCN(C(=O)C(C)(C)O)CC1)Cn1c-2c(C2CCCCC2)c2ccc(C(=O)NS(=O)(=O)N(C)C)cc21", "note": "(stereo not drawn)", "values": [
      {"measurement": "pIC50", "setting": "[1]; Table 1b", "result": "6.00 to 7.70"},
      {"measurement": "pEC50", "setting": "[2]; Table 1b", "result": "6.00 to 7.52"}
    ]}
  ]
}
